Data published in US8569344B2, “N-piperidinyl acetamide derivatives as calcium channel blockers” (Zalicus Pharmaceuticals Ltd., priority 2008, dated 2013).

Biological target: T1, human α1G T-type channels (Homo sapiens, UniProt O43497)
T1 construct: expressed in transfected cells; host or cells: HEK 293
Assay: T-type calcium channel block, whole cell patch clamp in HEK cells (α1G)
Type: cell-based
Details: HEK cells, patch clamp, mainly non-inactivated protocol; values above 10 μM shown as 10 μM, below 0.30 μM shown as 0.30 μM; read-out: T-type Calcium Channel Block α1G IC50
Description: T-type calcium channel blocking activity was assayed in human embryonic kidney cells, HEK 293, stably transfected with the T-type calcium channel subunits. Briefly, cells were cultured in Dulbecco's modified eagle medium (DMEM) supplemented with 10% fetal bovine serum, 200 U/ml penicillin and 0.2 mg/ml streptomycin at 37° C. with 5% CO2. At 85% confluency cells were split with 0.25% trypsin/1 mM EDTA and plated at 10% confluency on glass coverslips. […] Fresh DMEM was supplied and the cells transferred to 28° C./5% CO2. Cells were incubated for 1 to 2 days prior to whole cell recording.
Standard patch-clamp techniques were employed to identify blockers of T-type currents. Briefly, previously described HEK cell lines stably expressing human α1G, α1H and α1I T-type channels were used for all the recordings (passage #: 4-20, 37° C., 5% CO2). Whole cell patch clamp experiments were performed using an Axopatch 200B amplifier (Axon Instruments, Burlingame, Calif.) linked to a personal computer equipped with pCLAMP software. Data were analyzed using Clampfit (Axon Instruments) and SigmaPlot 4.0 (Jandel Scientific). To obtain T-type currents, plastic dishes containing semi-confluent cells were positioned on the stage of a ZEISS AXIOVERT S100 microscope after replacing the culture medium with external solution (see below). Whole-cell patches were obtained using pipettes (borosilicate glass with filament, O.D.: 1.5 mm, I.D.: 0.86 mm, 10 cm length), fabricated on a SUTTER P-97 puller with resistance values of ˜5 MΩ (see below for internal solution).
In the non-inactivating protocol, the holding potential is set at −110 mV and with a pre-pulse at −100 mV for 1 second prior to the test pulse at −40 mV for 50 ms.
Test compounds were dissolved in external solution, 0.1-0.01% DMSO. After ˜10 min rest, they were applied by gravity close to the cell using a WPI microfil tubing. The “non-inactivated” pre-pulse was used to examine the resting block of a compound. The “inactivated” protocol was employed to study voltage-dependent block. […] Values are shown in μM and values above 10 μM are simply represented as 10 μM.

T1 sequence (O43497 whole entry): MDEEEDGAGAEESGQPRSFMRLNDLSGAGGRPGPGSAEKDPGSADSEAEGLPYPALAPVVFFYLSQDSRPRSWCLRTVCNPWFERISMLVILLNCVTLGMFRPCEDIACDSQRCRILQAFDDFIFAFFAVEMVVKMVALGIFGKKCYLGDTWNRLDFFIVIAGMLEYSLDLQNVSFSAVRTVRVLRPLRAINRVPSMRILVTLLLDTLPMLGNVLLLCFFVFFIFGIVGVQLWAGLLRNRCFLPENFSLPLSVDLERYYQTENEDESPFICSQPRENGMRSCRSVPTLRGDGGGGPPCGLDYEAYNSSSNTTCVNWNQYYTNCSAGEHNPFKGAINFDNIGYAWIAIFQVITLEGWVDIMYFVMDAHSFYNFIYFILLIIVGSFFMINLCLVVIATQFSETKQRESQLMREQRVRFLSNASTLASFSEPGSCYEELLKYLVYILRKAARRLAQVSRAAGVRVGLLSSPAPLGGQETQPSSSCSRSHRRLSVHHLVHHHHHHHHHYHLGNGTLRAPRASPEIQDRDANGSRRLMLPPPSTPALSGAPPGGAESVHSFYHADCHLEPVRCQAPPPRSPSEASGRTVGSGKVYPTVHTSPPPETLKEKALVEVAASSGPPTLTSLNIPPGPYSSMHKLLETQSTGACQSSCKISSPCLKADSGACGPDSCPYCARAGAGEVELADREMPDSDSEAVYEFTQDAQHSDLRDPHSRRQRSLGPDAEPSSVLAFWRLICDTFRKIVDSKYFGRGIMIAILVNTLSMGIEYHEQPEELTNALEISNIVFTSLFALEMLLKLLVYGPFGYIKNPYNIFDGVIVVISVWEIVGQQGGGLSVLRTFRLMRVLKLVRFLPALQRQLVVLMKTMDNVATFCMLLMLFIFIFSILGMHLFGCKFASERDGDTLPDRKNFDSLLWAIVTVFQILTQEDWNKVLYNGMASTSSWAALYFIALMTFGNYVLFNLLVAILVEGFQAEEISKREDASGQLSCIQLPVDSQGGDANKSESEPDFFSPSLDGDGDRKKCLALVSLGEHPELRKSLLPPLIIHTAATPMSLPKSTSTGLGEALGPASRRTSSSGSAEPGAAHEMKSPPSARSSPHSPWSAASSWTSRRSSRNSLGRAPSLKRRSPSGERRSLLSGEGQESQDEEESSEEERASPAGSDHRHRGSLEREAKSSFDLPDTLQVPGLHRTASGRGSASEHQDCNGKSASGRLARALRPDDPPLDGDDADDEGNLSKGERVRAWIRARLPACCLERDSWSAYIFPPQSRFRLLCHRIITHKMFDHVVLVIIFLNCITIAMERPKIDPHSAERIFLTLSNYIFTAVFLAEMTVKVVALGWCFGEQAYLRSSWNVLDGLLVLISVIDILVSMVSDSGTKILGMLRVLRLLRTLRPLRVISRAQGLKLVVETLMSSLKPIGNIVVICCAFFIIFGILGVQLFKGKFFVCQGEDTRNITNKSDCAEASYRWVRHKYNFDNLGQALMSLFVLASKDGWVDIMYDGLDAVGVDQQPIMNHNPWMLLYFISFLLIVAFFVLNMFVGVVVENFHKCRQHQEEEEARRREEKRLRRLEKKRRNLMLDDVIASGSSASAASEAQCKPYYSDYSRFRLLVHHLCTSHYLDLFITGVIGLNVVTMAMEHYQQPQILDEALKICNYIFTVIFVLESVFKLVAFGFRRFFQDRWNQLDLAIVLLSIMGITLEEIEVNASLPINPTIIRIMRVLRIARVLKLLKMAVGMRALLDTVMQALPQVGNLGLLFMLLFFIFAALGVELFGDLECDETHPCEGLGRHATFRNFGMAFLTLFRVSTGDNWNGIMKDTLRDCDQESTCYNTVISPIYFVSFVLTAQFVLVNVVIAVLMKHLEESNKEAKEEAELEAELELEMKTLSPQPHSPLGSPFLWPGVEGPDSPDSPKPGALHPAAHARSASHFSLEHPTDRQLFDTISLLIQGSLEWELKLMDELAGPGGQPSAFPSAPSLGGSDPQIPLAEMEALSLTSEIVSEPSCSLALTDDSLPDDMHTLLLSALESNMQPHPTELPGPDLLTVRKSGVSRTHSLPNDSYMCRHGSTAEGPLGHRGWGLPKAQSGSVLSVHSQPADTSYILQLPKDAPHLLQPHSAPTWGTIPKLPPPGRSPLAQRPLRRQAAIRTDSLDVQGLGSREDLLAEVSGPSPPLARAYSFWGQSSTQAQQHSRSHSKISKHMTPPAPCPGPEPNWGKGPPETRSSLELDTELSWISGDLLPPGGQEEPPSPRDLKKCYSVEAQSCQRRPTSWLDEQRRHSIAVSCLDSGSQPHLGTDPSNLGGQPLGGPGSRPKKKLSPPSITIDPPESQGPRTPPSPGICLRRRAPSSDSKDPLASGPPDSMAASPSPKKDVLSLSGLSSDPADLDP

Row | Compound | IC50 [µM]
1 | CC(C)(C)NC(=O)CN1CCC(CNC(=O)C2(c3ccccc3)CCCC2)CC1 [Compound 432, N-((1-(2-(tert-butylamino)-2-oxoethyl)piperidin-4-yl)methyl)-1-phenylcyclopentanecarboxamide] | < 0.3
2 | NC1(C(=O)N2CCC(CNC(=O)c3cc(C(F)(F)F)cc(C(F)(F)F)c3)CC2)CCCC1 [Compound 85, N-((1-(1-aminocyclopentanecarbonyl)piperidin-4-yl)methyl)-3,5-bis(trifluoromethyl) benzamide] | > 10
3 | O=C(NCC1CCN(C[C@@H]2CCCN2S(=O)(=O)CCC(F)(F)F)CC1)c1cc(F)cc(C(F)(F)F)c1 [Compound 422, (S)-3-fluoro-5-(trifluoromethyl)-N-((1-((1-(3,3,3-trifluoropropyl-sulfonyl)pyrrolidin-2-yl)methyl)piperidin-4-yl)methyl) benzamide] | 1.93
4 | COC(=O)NC(CN1CCC(CC(=O)NCc2cc(Cl)cc(Cl)c2)CC1)C(C)(C)C (stereo not shown) [Compound 223, methyl 1-(4-(2-(3,5-dichlorobenzyl-amino)-2-oxoethyl)piperidin-1-yl)-3,3-dimethylbutan-2-ylcarbamate] | 8.15
5 | O=C(NCC1CCN(CCNC(=O)C2CCCC2)CC1)c1cc(Br)cc(C(F)(F)F)c1 [Compound 407, 3-bromo-N-((1-(2-(cyclopentanecarboxamido)ethyl)piperidin-4-yl)methyl)-5-(trifluoromethyl)benzamide] | < 0.3
6 | COc1ccc(C(=O)NCC2CCN(CCNS(=O)(=O)C(F)(F)F)CC2)cc1OC [Compound 332, 3,4-dimethoxy-N-((1-(2-(trifluoromethylsulfonamido)ethyl)piperidin-4-yl)methyl)benzamide] | > 10
7 | O=C(NCC1CCN(C(=O)CNCCCN2CCOCC2)CC1)c1cc(F)cc(C(F)(F)F)c1 [Compound 270, 3-fluoro-N-((1-(2-(3-morpholinopropylamino)acetyl)piperidin-4-yl)methyl)-5-(trifluoromethyl)benzamide] | > 10
8 | CC1(NC(=O)CN2CCC(CNC(=O)c3cc(C(F)(F)F)cc(C(F)(F)F)c3)CC2)CCCCC1 [Compound 431, N-((1-(2-(1-methylcyclohexylamino)-2-oxoethyl)piperidin-4-yl)methyl)-3,5-bis(trifluoromethyl)benzamide] | < 0.3
9 | NC1(C(=O)N2CCC(CC(=O)Nc3cc(C(F)(F)F)cc(C(F)(F)F)c3)CC2)CC1 [Compound 190, 2-(1-(1-aminocyclopropanecarbonyl)piperidin-4-yl)-N-(3,5-bis(trifluoromethyl)phenyl) acetamide] | > 10
10 | NC1(C(=O)N2CCC(CC(=O)Nc3cc(C(F)(F)F)cc(C(F)(F)F)c3)CC2)CCOCC1 [Compound 194, 2-(1-(4-aminotetrahydro-2H-pyran-4-carbonyl)piperidin-4-yl)-N-(3,5-bis(trifluoromethyl)phenyl)acetamide] | > 10
11 | CCS(=O)(=O)NC(CN1CCC(CC(=O)NCc2cc(Cl)cc(Cl)c2)CC1)C(C)(C)C (stereo not shown) [Compound 208, N-(3,5-dichlorobenzyl)-2-(1-(2-(ethylsulfonamido)-3,3-dimethylbutyl)piperidin-4-yl)acetamide] | > 10
12 | CCS(=O)(=O)N1CCC[C@H]1CN1CCC(CNC(=O)c2cc(F)cc(C(F)(F)F)c2)CC1 [Compound 417] | 9.49
13 | O=C(NCC1CCN(CCNC(=O)C2CCCC2)CC1)c1cc(Cl)cc(C(F)(F)F)c1 [Compound 405, 3-chloro-N-((1-(2-(cyclopentanecarboxamido)ethyl)piperidin-4-yl)methyl)-5-(trifluoromethyl)benzamide] | < 0.3
14 | CC(C)(C)OC(=O)NCCN1CCC(CNC(=O)c2cccc(S(C)(=O)=O)c2)CC1 [Compound 45, tert-butyl 2-(4-((3-(methylsulfonyl)benzamido)methyl)piperidin-1-yl)ethylcarbamate] | > 10
15 | O=C(NCC1CCN(C[C@@H]2CCCN2S(=O)(=O)C2CC2)CC1)c1cc(F)cc(C(F)(F)F)c1 [Compound 418, (S)-N-((1-((1-(cyclopropylsulfonyl)pyrrolidin-2-yl)methyl)piperidin-4-yl)methyl)-3-fluoro-5-(trifluoromethyl) benzamide] | 2.17
16 | CC(C)(C)OC(=O)NCCN1CCC(CNC(=O)c2ccccc2C(F)(F)F)CC1 [Compound 53, tert-butyl 2-(4-((2-(trifluoromethyl)benzamido)methyl)piperidin-1-yl)ethylcarbamate] | > 10

Row | Compound | IC50 [µM]
17 | CC(C)(C)C(O)CN1CCC(CC(=O)Nc2nc3ccccc3[nH]2)CC1 (stereo not shown) [Compound 166, N-(1H-benzo[d]imidazol-2-yl)-2-(1-(2-hydroxy-3,3-dimethylbutyl)piperidin-4-yl)acetamide] | > 10
18 | CC(C)(O)C(=O)N1CCC(CC(=O)Nc2cc(C(F)(F)F)cc(C(F)(F)F)c2)CC1 [Compound 154, N-(3,5-bis(trifluoromethyl)phenyl)-2-(1-(2-hydroxy-2-methylpropanoyl)piperidin-4-yl)acetamide] | 6.71
19 | O=C(NCC1CCN(CCNC(=O)C2CCCC2)CC1)c1cc(F)cc(C(F)(F)F)c1 [Compound 402, N-((1-(2-(cyclopentanecarboxamido)ethyl)piperidin-4-yl)methyl)-3-fluoro-5-(trifluoromethyl)benzamide] | 0.54
20 | CC(C)(C)C(O)C(=O)N1CCC(CNC(=O)c2cc(C(F)(F)F)cc(C(F)(F)F)c2)CC1 (stereo not shown) [Compound 91, N-((1-(2-hydroxy-3,3-dimethylbutanoyl)piperidin-4-yl)methyl)-3,5-bis(trifluoromethyl)benzamide] | > 10
21 | CC(C)(C)OC(=O)NC(CN1CCC(CC(=O)NCCc2c[nH]c3ccccc23)CC1)C(C)(C)C (stereo not shown) [Compound 197, tert-butyl 1-(4-(2-(2-(1H-indol-3-yl)ethylamino)-2-oxoethyl)piperidin-1-yl)-3,3-dimethylbutan-2-ylcarbamate] | > 10
22 | CN(CC1CCN(CCNC(=O)CC(C)(C)C)CC1)C(=O)c1cc(F)cc(C(F)(F)F)c1 [Compound 413, N-((1-(2-(3,3-dimethylbutanamido)ethyl)piperidin-4-yl)methyl)-3-fluoro-N-methyl-5-(trifluoromethyl)benzamide] | > 10
23 | O=C(NCC1CCN(CCNC(=O)C2CCCC2)CC1)c1cc(Cl)cc(Br)c1 [Compound 406, 3-bromo-5-chloro-N-((1-(2-(cyclopentanecarboxamido)ethyl)piperidin-4-yl)methyl)benzamide] | < 0.3
24 | CC(C)(C)NC(=O)N1CCC[C@H]1CN1CCC(CNC(=O)c2cc(F)cc(C(F)(F)F)c2)CC1 [Compound 410, (S)-N-tert-butyl-2-((4-((3-fluoro-5-(trifluoromethyl)benzamido)methyl)piperidin-1-yl)methyl)pyrrolidine-1-carboxamide] | 1.15
25 | COc1cc(C(=O)NCC2CCN(CCNC(=O)C3CCCC3)CC2)cc(C(F)(F)F)c1 [Compound 404, N-((1-(2-(cyclopentanecarboxamido)ethyl)piperidin-4-yl)methyl)-3-methoxy-5-(trifluoromethyl)benzamide] | 0.38
26 | O=C(NCC1CCN(C[C@@H]2CCCN2C(=O)C2CCCC2)CC1)c1cc(F)cc(C(F)(F)F)c1 [Compound 425, (S)-N-((1-((1-(cyclopentanecarbonyl)pyrrolidin-2-yl)methyl)piperidin-4-yl)methyl)-3-fluoro-5-(trifluoromethyl)benzamide] | < 0.3
27 | CC(C)(C)C(CN1CCC(CC(=O)NC(c2cccc(F)c2)c2cccc(F)c2)CC1)NS(C)(=O)=O (stereo not shown) [Compound 219, N-(bis(3-fluorophenyl)methyl)-2-(1-(3,3-dimethyl-2-(methylsulfonamido)butyl)piperidin-4-yl)acetamide] | > 10
28 | O=C(NCC1CCN(CCNC(=O)C2CCCC2)CC1)c1cccc(Br)c1 [Compound 400, 3-bromo-N-((1-(2-(cyclopentanecarboxamido)ethyl)piperidin-4-yl)methyl)benzamide] | 1.5
29 | CC(C)(C)C(O)CN1CCC(CC(=O)NCc2ccc3c(c2)CCO3)CC1 (stereo not shown) [Compound 176, N-((2,3-dihydrobenzofuran-5-yl)methyl)-2-(1-(2-hydroxy-3,3-dimethylbutyl)piperidin-4-yl)acetamide] | > 10
30 | O=C(CC1CCN(C(=O)[C@H]2CCCN2)CC1)Nc1cc(C(F)(F)F)cc(C(F)(F)F)c1 [Compound 191, (R)-N-(3,5-bis(trifluoromethyl)phenyl)-2-(1-(pyrrolidine-2-carbonyl)piperidin-4-yl)acetamide] | > 10
31 | O=C(NCC1CCN(C[C@@H]2CCCN2S(=O)(=O)CC2CC2)CC1)c1cc(F)cc(C(F)(F)F)c1 [Compound 421, (S)-N-((1-((1-(cyclopropylmethylsulfonyl)pyrrolidin-2-yl)methyl)piperidin-4-yl)methyl)-3-fluoro-5-(trifluoromethyl)benzamide] | 4.04
